How the values were obtained:
Test in all cases: relative viability (nuclei count vs DMSO), 5 days (fraction); higher = more cells survive
AT9283 + Linsitinib = compound: O=C(Nc1c[nH]nc1-c1nc2ccc(CN3CCOCC3)cc2[nH]1)NC1CC1 [AT9283] + C[C@]1(O)C[C@@H](c2nc(-c3ccc4ccc(-c5ccccc5)nc4c3)c3c(N)nccn32)C1 [Linsitinib] (partner 1 µM)
In short: (§1)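 Lung cancer cell lines were seeded in 1536-well plates and dosed by pin tool the next day, with either a single drug or a fixed anchor-drug dose combined with five library-drug doses (not always all listed) spaced in √10 steps. Five days later, one step fixed the cells and stained their nuclei (final 0.05% Triton X-100, 1% formaldehyde, 1 ug/ml Hoechst), and nuclei were counted on 4× images. Relative viability is the nuclei count in treated wells divided by the count in vehicle wells, and each value is the median of duplicate plates.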

AT9283 + Vorinostat = compound: O=C(Nc1c[nH]nc1-c1nc2ccc(CN3CCOCC3)cc2[nH]1)NC1CC1 [AT9283] + O=C(CCCCCCC(=O)Nc1ccccc1)NO [Vorinostat] (partner 1 µM)
In short: as §1

AT9283 + Crizotinib = compound: O=C(Nc1c[nH]nc1-c1nc2ccc(CN3CCOCC3)cc2[nH]1)NC1CC1 [AT9283] + C[C@@H](Oc1cc(-c2cnn(C3CCNCC3)c2)cnc1N)c1c(Cl)ccc(F)c1Cl [Crizotinib] (partner 1 µM)
In short: as §1

Erlotinib + Olaparib = compound: C#Cc1cccc(Nc2ncnc3cc(OCCOC)c(OCCOC)cc23)c1 [Erlotinib] + O=C(c1cc(Cc2n[nH]c(=O)c3ccccc23)ccc1F)N1CCN(C(=O)C2CC2)CC1 [Olaparib] (partner 8 µM)
In short: as §1

AT9283 + Alpelisib = compound: O=C(Nc1c[nH]nc1-c1nc2ccc(CN3CCOCC3)cc2[nH]1)NC1CC1 [AT9283] + Cc1nc(NC(=O)N2CCC[C@H]2C(N)=O)sc1-c1ccnc(C(C)(C)C(F)(F)F)c1 [Alpelisib] (partner 2 µM)
In short: as §1

| Cell Line | relative viability (AT9283 + Linsitinib; first compound 0.003 µM) | relative viability (AT9283 + Linsitinib; first compound 0.03 µM) | relative viability (AT9283 + Linsitinib; first compound 0.09487 µM) | relative viability (AT9283 + Linsitinib; first compound 0.3 µM) | relative viability (AT9283 + Vorinostat; first compound 0.003 µM) | relative viability (AT9283 + Vorinostat; first compound 0.03 µM) | relative viability (AT9283 + Vorinostat; first compound 0.09487 µM) | relative viability (AT9283 + Vorinostat; first compound 0.3 µM) | relative viability (AT9283 + Crizotinib; first compound 0.003 µM) | relative viability (AT9283 + Crizotinib; first compound 0.03 µM) | relative viability (AT9283 + Crizotinib; first compound 0.09487 µM) | relative viability (AT9283 + Crizotinib; first compound 0.3 µM) | relative viability (Erlotinib + Olaparib; first compound 0.02 µM) | relative viability (Erlotinib + Olaparib; first compound 0.2 µM) | relative viability (Erlotinib + Olaparib; first compound 0.6325 µM) | relative viability (Erlotinib + Olaparib; first compound 2 µM) | relative viability (AT9283 + Alpelisib; first compound 0.003 µM) | relative viability (AT9283 + Alpelisib; first compound 0.03 µM) | relative viability (AT9283 + Alpelisib; first compound 0.09487 µM) | relative viability (AT9283 + Alpelisib; first compound 0.3 µM) |
| --- | --- | --- | --- | --- | --- | --- | --- | --- | --- | --- | --- | --- | --- | --- | --- | --- | --- | --- | --- | --- |
| NCI-H2228 | 0.823 | 0.632 | 0.17 | 0.175 | 0.655 | 0.277 | 0.133 | 0.103 | 0.587 | 0.272 | 0.195 | 0.171 | 0.678 | 0.701 | 0.537 | 0.604 | 0.831 | 0.676 | 0.176 | 0.136 |
| NCI-H2347 | 0.952 | 0.975 | 0.555 | 0.389 | 0.826 | 0.566 | 0.357 | 0.288 | 0.717 | 0.78 | 0.446 | 0.363 | 0.601 | 0.587 | 0.526 | 0.562 | 1.16 | 1.04 | 0.606 | 0.451 |
| NCI-H2405 | 1.06 | 0.632 | 0.315 | 0.221 | 0.959 | 0.576 | 0.3 | 0.24 | 0.826 | 0.634 | 0.272 | 0.217 | 0.965 | 0.849 | 0.888 | 0.81 | 0.881 | 0.551 | 0.236 | 0.15 |
| NCI-H3122 | 0.963 | 0.885 | 0.346 | 0.166 | 0.851 | 0.978 | 0.598 | 0.138 | 0.291 | 0.259 | 0.216 | 0.214 | 0.618 | 0.652 | 0.631 | 0.618 | 0.786 | 0.764 | 0.28 | 0.227 |
| PC-3 [JPC-3] | 0.94 | 1.03 | 0.74 | 0.521 | 0.562 | 0.694 | 0.526 | 0.46 | 0.929 | 0.832 | 0.608 | 0.509 | 1.05 | 0.559 | 0.466 | 0.434 | 1.02 | 0.997 | 0.621 | 0.527 |
| PC-14 | 1.04 | 0.729 | 0.438 | 0.138 | 0.79 | 0.17 | 0.107 | 0.114 | 0.959 | 0.731 | 0.559 | 0.159 | 0.272 | 0.168 | 0.135 | 0.106 | 0.992 | 0.893 | 0.554 | 0.1 |
| RERF-LC-KJ | 0.995 | 0.508 | 0.264 | 0.208 | 0.636 | 0.473 | 0.346 | 0.264 | 0.788 | 0.526 | 0.293 | 0.23 | 1 | 0.86 | 0.994 | 0.852 | 0.808 | 0.738 | 0.441 | 0.251 |
| SK-LU-1 | 1.1 | 0.349 | 0.323 | 0.356 | 0.904 | 0.418 | 0.329 | 0.314 | 0.922 | 0.519 | 0.295 | 0.305 | 0.536 | 0.551 | 0.403 | 0.455 | 1.2 | 0.426 | 0.304 | 0.254 |
| SK-MES-1 | 1.07 | 0.933 | 0.846 | 0.17 | 1.19 | 1.03 | 0.304 | 0.154 | 1.02 | 0.883 | 0.84 | 0.256 | 0.821 | 0.563 | 0.465 | 0.346 | 0.807 | 0.859 | 0.509 | 0.173 |
| SW 1573 | 0.917 | 0.413 | 0.223 | 0.184 | 0.835 | 0.211 | 0.165 | 0.133 | 0.698 | 0.376 | 0.219 | 0.157 | 0.502 | 0.494 | 0.558 | 0.364 | 0.766 | 0.441 | 0.226 | 0.249 |
| UMC-11 | 0.849 | 0.138 | 0.14 | 0.168 | 0.359 | 0.109 | 0.117 | 0.124 | 0.58 | 0.075 | 0.0835 | 0.132 | 0.987 | 0.426 | 0.477 | 0.324 | 1.01 | 0.148 | 0.122 | 0.146 |

— the supplement of paper PMC10307832
